In patent publication US12507703B2, “Methods, devices and compositions for preserving human milk” (The Trustees of Princeton University, priority 2023, dated 2025):
Several values for one entry are separate records, joined by “and”; a condition that tells them apart may be missing. Equal values may be shown once. Where a SMILES comes first, the peptide text is derived from it.

Tested on: lipase
Experiment: Lipase/lipolysis assay (EnzChek Lipase Substrate, quenched BODIPY-fatty acid conjugate) on stored human milk; on Lipase (RFU): test concentration or dose not given here

Compound | Lipase (RFU) | further results
OCc1c[nH]c2ccccc12 [Indole-3-carbinol] | 1082.489 RFU | 
COc1cc([C@@H]2Oc3c(O)cc([C@H]4Oc5cc(O)cc(O)c5C(=O)[C@@H]4O)cc3[C@H]2CO)ccc1O [Silychristin] | 921.666 RFU | 
OC[C@@H](O)[C@H](O)[C@H](O)[C@@H](O)CO [Dulcite] | 1020.567 RFU | 
O=C(O)CCCCCCCCCCCO [12-Hydroxydodecanoic acid] | 778.3097 RFU | 
c1ccc2c(c1)[nH]c1cnccc12 [Norharmane] | 960.1337 RFU | 
O=C(O)C1=CO[C@@H](O[C@@H]2O[C@H](CO)[C@@H](O)[C@H](O)[C@H]2O)[C@H]2[C@@H]1C=C[C@]2(O)CO [Monotropein] | 976.474 RFU | 
NC(=O)OP(=O)(O)O [Carbamyl Phosphate] | 699.376 RFU | 
Estrone sulfate (potassium) | 961.3154 RFU | 
OC[C@H]1O[C@@](CO)(O[C@H]2O[C@H](CO)[C@@H](O)[C@H](O)[C@H]2O)[C@@H](O[C@H]2O[C@H](CO)[C@@H](O)[C@H](O)[C@H]2O)[C@@H]1O [D-(+)-Melezitose] | 886.4563 RFU | 
OC[C@H]1O[C@@H](O[C@H]2[C@H](O)[C@@H](O)[C@H](O)O[C@@H]2CO)[C@H](O)[C@@H](O)[C@@H]1O [D-Cellobiose] | 785.8282 RFU | 
CC1(C)CCCC2(C)OC(=O)C=C12 (single isomer, unassigned; (+)) [(+)-Dihydroactinidiolide] | 951.3124 RFU | 
N[C@@H](CS(=O)O)C(=O)O [L-Cysteinesulfinic acid] | 867.5137 RFU | 
COc1cc2c(=O)c(-c3ccc(O)cc3)coc2cc1O[C@@H]1O[C@H](CO)[C@@H](O)[C@H](O)[C@H]1O [Glycitin] | 799.4163 RFU | 
Nc1ncnc2c1ncn2C1OC(CO)C2OP(=O)(O)OC21 (stereo not drawn) [Adenosine-2′,3′-cyclic monophosphate] | 828.2019 RFU | 
OC[C@H]1NC[C@H](O)[C@@H](O)[C@@H]1O [Compound 1-Deoxynojirimycin] | 1029.468 RFU | 
CC(C)[C@@H](C)/C=C/[C@@H](C)[C@H]1CC[C@H]2[C@@H]3CC=C4C[C@@H](O)CC[C@]4(C)[C@H]3CC[C@]12C [Brassicasterol] | 931.4963 RFU | 
CCOP(=O)(OCC)OCC [Triethyl Phosphate] | 963.8293 RFU | 
CC(C)=CCC[C@](C)(O)[C@H]1CC[C@]2(C)[C@@H]1[C@H](O)C[C@@H]1[C@@]3(C)CC[C@H](O[C@@H]4O[C@H](CO)[C@@H](O)[C@H](O)[C@H]4O[C@@H]4O[C@H](CO)[C@@H](O)[C@H](O)[C@H]4O)C(C)(C)[C@@H]3CC[C@]12C [20(S)-Ginsenoside Rg3] | 979.4673 RFU | 
C[C@H](N)C(=O)NCC(=O)O [L-Alanyl-Glycine] (H-Ala-Gly-OH) | 816.3246 RFU | 
CC(C)=CCC[C@](C)(O[C@@H]1O[C@H](CO)[C@@H](O)[C@H](O)[C@H]1O)[C@H]1CC[C@]2(C)[C@@H]1[C@H](O)C[C@@H]1[C@@]3(C)CC[C@H](O[C@@H]4O[C@H](CO)[C@@H](O)[C@H](O)[C@H]4O)C(C)(C)[C@@H]3CC[C@]12C [Ginsenoside F2] | 926.1742 RFU | 
CCCCC/C=C/C=C/C(=O)NCC(C)C [Pellitorine] | 785.2318 RFU and 741.5651 RFU | 
CCCCCCCCCCCCC/C=C/[C@@H](O)[C@@H](N)CO [D-erythro-Sphingosine] | 823.3956 RFU | 
CC1(C)CCC[C@]2(C)[C@H]3CCO[C@]3(C)CC[C@@H]12 [Ambroxide] | 1042.515 RFU | 

Compound | Lipase (RFU) | further results
CC1(C)CC[C@]2(C(=O)O[C@@H]3O[C@H](CO)[C@@H](O)[C@H](O)[C@H]3O)CC[C@]3(C)C(=CC[C@@H]4[C@@]5(C)CC[C@H](O[C@@H]6O[C@H](C(=O)O)[C@@H](O[C@@H]7O[C@@H](CO)[C@H](O)[C@H]7O)[C@H](O)[C@H]6O)C(C)(C)[C@@H]5CC[C@]43C)[C@@H]2C1 [Araloside A] | 938.5227 RFU | 
NCCO [2-Aminoethanol] | 533.8 RFU | 
N[C@@H](Cc1c[nH]c2ccccc12)C(=O)O [L-Tryptophan] | 1074.461 RFU and 1239.076 RFU | 
C=CCc1ccc(OC)cc1 [Estragole] | 655.6447 RFU and 832.8206 RFU | 
Inulin | 793.2721 RFU and 805.6516 RFU and 1006.043 RFU | Effect on lipase / lipolysis (in words): did not inhibit or slow human milk lipolysis; Synergistic effect in combination testing (in words): did not have synergistic effects
O=c1cc(-c2ccc(O)cc2)oc2c([C@@H]3OC[C@@H](O)[C@H](O)[C@H]3O)c(O)c([C@@H]3O[C@H](CO)[C@@H](O)[C@H](O)[C@H]3O)c(O)c12 [Vicenin 3] | 1057.755 RFU | 
COc1cc2c(cc1O)C[C@@H]1NCCc3cc(OC)c(O)c-2c31 [Norisoboldine] | 812.7907 RFU | 
CC1(C)CC[C@]2(C)CC[C@]3(C)C(=CC[C@@H]4[C@@]5(C)CC[C@H](O)C(C)(C)[C@@H]5CC[C@]43C)[C@@H]2C1 [β-Amyrin] | 1183.423 RFU | 
Maltotriose | 917.8057 RFU and 1104.158 RFU | 
O=C(CO)[C@H](O)[C@H](O)[C@H](O)CO [D-Psicose] | 990.8733 RFU | 
O=C(CO)[C@@H](O)[C@H](O)[C@@H](O)CO [(3S,4R,5S)-1,3,4,5,6-Pentahydroxyhexan-2-one] | 1079.288 RFU and 1003.563 RFU | 
C=CCSSCC=C [Diallyl disulfide] | 1000.398 RFU and 1055.55 RFU | 
COC1=CC(=O)C=C(OC)C1=O [2,6-Dimethoxy-1,4-benzoquinone] | 934.6959 RFU | 
CC1(C)[C@@H](O[C@H]2O[C@H](C(=O)[O-])[C@@H](O)[C@H](O)[C@H]2O[C@@H]2O[C@H](C(=O)[O-])[C@@H](O)[C@H](O)[C@H]2O)CC[C@]2(C)[C@H]3C(=O)C=C4[C@@H]5C[C@@](C)(C(=O)O)CC[C@]5(C)CC[C@@]4(C)[C@]3(C)CC[C@@H]12.[K+].[K+] [Dipotassium glycyrrhizinate] | 813.8172 RFU and 1090.475 RFU | 
CCCCCCCCCCCCCCCCCO [Compound 1-Heptadecanol, 1-Heptadecanol] | 803.2986 RFU | 
C[C@@H]1O[C@@H](O[C@H]2[C@H](Oc3cc(O)c4c(c3)O[C@H](c3ccc(O)c(O)c3)CC4=O)O[C@H](CO)[C@@H](O)[C@@H]2O)[C@H](O)[C@H](O)[C@H]1O [Neoeriocitrin] | 1015.344 RFU | 
CCSCCC(N)C(=O)O (racemic) [D,L-Ethionine] | 921.5463 RFU | 
CC1=CC(=O)CC(C)(C)[C@@]1(O)/C=C/C(C)=C\C(=O)O [Abscisic acid] | 1087.943 RFU | 
CC(C)(C(=O)O)C(=O)O [Dimethylmalonic acid] | 890.7612 RFU | 
NC(=O)c1ccc[n+]([C@@H]2O[C@H](COP(=O)([O-])OP(=O)(O)OC[C@H]3O[C@@H](n4cnc5c(N)ncnc54)[C@H](O)[C@@H]3O)[C@@H](O)[C@H]2O)c1 [NAD+] | 662.6014 RFU | 
Maltotetraose | 824.2713 RFU | 
OC[C@H]1O[C@H](OCC2O[C@@H](O)[C@H](O)[C@@H](O)[C@@H]2O)[C@H](O)[C@@H](O)[C@H]1O (stereo partly drawn) [D-Melibiose] | 850.0787 RFU and 747.8737 RFU | 
CCCCCCO [Compound 1-Hexanol] | 1054.453 RFU and 1051.532 RFU | 

Compound | Lipase (RFU) | further results
COc1cc(C=O)cc(OC)c1O [Syringaldehyde] | 938.0511 RFU and 949.8732 RFU | 
COc1cc(CC(=O)O)ccc1O [Homovanillic acid] | 934.4466 RFU | 
CC(C)CCC[C@@H](C)[C@H]1CC[C@H]2C3=CC[C@H]4C[C@@H](O)CC[C@]4(C)[C@H]3CC[C@]12C [Lathosterol] | 1017.106 RFU | 
Chondroitin Sulfate C | 308.9045 RFU | Hit in lipase inhibition screen (in words): significantly inhibited lipase activity
COc1cc(C=CC(=O)O)cc(OC)c1O (stereo in doubt) [Sinapinic acid] | 1040.338 RFU | 
Medicarpin | 622.3141 RFU | 
CC(C)[C@]12CC(=O)[C@H](C)[C@H]1C2 [α-Thujone] | 659.4321 RFU | 
Fucoidan from Macrocystis pyrifera | 384.150 RFU | 
O=C(O)c1ccc(O)c(O)c1 [Protocatechuic acid] | 981.5941 RFU and 972.5566 RFU | 
O=S(=O)([O-])c1ccc(N=Nc2c(O)ccc3cc(S(=O)(=O)[O-])ccc23)cc1.[Na+].[Na+] [Sunset Yellow FCF] | 868.5434 RFU | 
CC(=O)N[C@@H]1C(O)O[C@H](CO)[C@@H](O)[C@@H]1O (stereo partly drawn) [Cyclic N-Acetyl-D-mannosamine] | 868.6631 RFU | 
CCCCCCCCCC=O [Decyl aldehyde] | 807.9785 RFU and 682.2968 RFU | 
C/C1=C2/[N-][C@H]([C@H](CC(N)=O)[C@@]2(C)CCC(=O)NC[C@@H](C)OP(=O)([O-])O[C@H]2[C@@H](O)[C@@H](n3cnc4cc(C)c(C)cc43)O[C@@H]2CO)[C@]2(C)N=C(/C(C)=C3N=C(/C=C4N=C1[C@@H](CCC(N)=O)C\4(C)C)[C@@H](CCC(N)=O)[C@]\3(C)CC(N)=O)[C@@H](CCC(N)=O)[C@]2(C)CC(N)=O.[CH2-][C@H]1O[C@@H](n2cnc3c(N)ncnc32)[C@H](O)[C@@H]1O.[Co] [Adenosylcobalamin] | 817.3471 RFU | 
Ginkgolide C | 1234.872 RFU | 
C/C=C/c1cc(OC)c(OC)cc1OC [alpha-Asarone] | 956.156 RFU | 
Schaftoside | 900.214 RFU | 
O=P(O)(O)OC(CO)CO [b-Glycerol Phosphate] | 984.3562 RFU | 
C[C@]12CCC(=O)C=C1CC[C@@H]1[C@@H]2C(=O)C[C@]2(C)C(=O)CC[C@@H]12 [Adrenosterone] | 757.5347 RFU | 
(−)-Menthone | 1263.606 RFU | 
CC1=C(/C=C/C(C)=C/C=C/C(C)=C/C(=O)O)C(C)(C)CCC1=O [all-trans-4-Oxoretinoic acid] | 984.8749 RFU | 
O=C1C[C@@H](c2ccc(O)cc2)Oc2cc(O[C@@H]3O[C@H](CO)[C@@H](O)[C@H](O)[C@H]3O)ccc21 [Neoliquiritin] | 772.4579 RFU | 
γ-Oryzanol | 1128.852 RFU | 
OC[C@@H](O)[C@@H](O[C@H]1O[C@H](CO)[C@@H](O)[C@H](O)[C@H]1O)[C@H](O)[C@@H](O)CO [Maltitol] | 943.5543 RFU | 
